Assay results as given in ChEMBL document CHEMBL5137064, “Therapeutic Potential and Activity Modulation of the Protein Lysine Deacylase Sirtuin 5” (J Med Chem, 2022).
*1 amine or outer side, *2 acyl side, *3 side chain or, on linkers, in order; H or OH if unused. Where a SMILES comes first, the peptide text is derived from it. Side-chain parts run from the residue outwards. The star is where a group is joined. ξ: configuration not given here. Succinyl(3ξ-Ph) = O=C(O)C(CC(=O)*)c1ccccc1; βAsp = O=C(O)[C@H](CC(=O)[*:2])N[*:1]; X2 = CC(CC(=O)*)(C(=O)O)c1ccccc1; X4 = CC(=O)SC(CC(=O)*)C(=O)O; X3 = CCCCC(CC(=O)*)C(=O)O; Cbz = O=C(OCc1ccccc1)*; Bz = O=C(c1ccccc1)*

How the values were obtained:
[1] = biological target: T1, NAD-dependent protein deacylase sirtuin-5, mitochondrial (Homo sapiens, UniProt Q9NXA8); assay: Inhibition of SIRT5 desuccinylase activity (unknown origin) using succinyl-lysine as substrate
Target sequence in this assay (Q9NXA8 whole entry): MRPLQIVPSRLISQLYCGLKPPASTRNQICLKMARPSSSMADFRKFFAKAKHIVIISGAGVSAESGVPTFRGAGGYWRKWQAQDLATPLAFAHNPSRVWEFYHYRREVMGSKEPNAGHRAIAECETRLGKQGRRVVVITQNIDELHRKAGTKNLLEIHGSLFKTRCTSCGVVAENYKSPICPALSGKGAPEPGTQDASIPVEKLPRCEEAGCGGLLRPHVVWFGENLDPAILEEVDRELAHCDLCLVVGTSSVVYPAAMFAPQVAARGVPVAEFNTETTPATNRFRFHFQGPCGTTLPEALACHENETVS

[2] = biological target: T1, NAD-dependent protein deacylase sirtuin-5, mitochondrial; assay: Binding affinity to SIRT5 (unknown origin) assessed as desuccinylation activity by measuring inhibition constant
Target sequence in this assay (Q9NXA8 whole entry): as above

[3] = biological target: T1, NAD-dependent protein deacylase sirtuin-5, mitochondrial; assay: Inhibition of human recombinant SIRT5 using fluorogenic Benzyl-Lys(Succinyl)-AMC as substrate incubated for 2 hrs measured by fluoroscence based microplate reader method
Target sequence in this assay (Q9NXA8 whole entry): as above

[4] = biological target: T1, NAD-dependent protein deacylase sirtuin-5, mitochondrial; assay: Inhibition of SIRT5 deglutarylase activity (unknown origin)
Target sequence in this assay (Q9NXA8 whole entry): as above

[5] = biological target: T2, NAD-dependent protein deacetylase sirtuin-3, mitochondrial (Homo sapiens) (UniProt Q9NTG7); assay: Inhibition of SIRT3 (unknown origin) at 10 uM relative to control
T2 sequence (whole entry): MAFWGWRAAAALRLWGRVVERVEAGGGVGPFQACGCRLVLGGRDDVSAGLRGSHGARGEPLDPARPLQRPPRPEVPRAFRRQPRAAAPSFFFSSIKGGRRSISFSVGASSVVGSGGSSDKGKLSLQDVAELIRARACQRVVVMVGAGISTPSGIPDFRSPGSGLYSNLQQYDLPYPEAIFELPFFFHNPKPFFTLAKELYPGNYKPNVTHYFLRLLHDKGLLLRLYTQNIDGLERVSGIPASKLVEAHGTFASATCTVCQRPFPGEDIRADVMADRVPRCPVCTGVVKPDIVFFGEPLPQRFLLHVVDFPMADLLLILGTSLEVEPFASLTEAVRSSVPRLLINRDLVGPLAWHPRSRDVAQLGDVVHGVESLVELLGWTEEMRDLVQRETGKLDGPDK

[6] = biological target: T1, NAD-dependent protein deacylase sirtuin-5, mitochondrial; assay: Binding affinity to SIRT5 (unknown origin) assessed as deglutarylase activity by measuring inhibition constant
Target sequence in this assay (Q9NXA8 whole entry): as the sequence (Q9NXA8 whole entry) above

MOLM-13 = assay: Cytotoxicity against human MOLM-13 cells; assay type: functional, cell-based
SKM-1 [7] = assay: Induction of apoptosis in human SKM-1 cells at 20 uM relative to control; assay type: functional
OCI-AML2 [8] = assay: Induction of apoptosis in human OCI-AML2 cells at 20 uM relative to control; assay type: functional
OCI-AML2 [9] = assay: cells; conditions: Homo sapiens
Description: Cytotoxicity against human OCI-AML2 cells

SKM-1 [10] = assay: cells; conditions: Homo sapiens
Description: Cytotoxicity against human SKM-1 cells

[11] = biological target: T2, NAD-dependent protein deacetylase sirtuin-3, mitochondrial (Homo sapiens); assay: Inhibition of SIRT3 (unknown origin) at 50 uM incubated for 15 mins by fluorometric assay relative to control
[12] = biological target: T1, NAD-dependent protein deacylase sirtuin-5, mitochondrial; assay: Inhibition of SIRT5 (unknown origin) at 50 uM incubated for 15 mins by fluorometric assay relative to control
Target sequence in this assay (Q9NXA8 37-310 limits assumed): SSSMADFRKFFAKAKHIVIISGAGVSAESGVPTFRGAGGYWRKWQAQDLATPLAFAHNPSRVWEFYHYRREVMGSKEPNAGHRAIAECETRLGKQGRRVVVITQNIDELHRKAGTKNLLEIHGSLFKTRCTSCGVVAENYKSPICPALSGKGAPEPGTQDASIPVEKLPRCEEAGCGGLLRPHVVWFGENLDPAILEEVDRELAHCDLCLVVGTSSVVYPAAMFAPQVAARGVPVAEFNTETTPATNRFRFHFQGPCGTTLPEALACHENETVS

[13] = biological target: T3, NAD-dependent protein deacetylase sirtuin-1 (Homo sapiens) (UniProt Q96EB6); assay: Inhibition of SIRT1 (unknown origin) at 10 uM relative to control
T3 sequence (whole entry): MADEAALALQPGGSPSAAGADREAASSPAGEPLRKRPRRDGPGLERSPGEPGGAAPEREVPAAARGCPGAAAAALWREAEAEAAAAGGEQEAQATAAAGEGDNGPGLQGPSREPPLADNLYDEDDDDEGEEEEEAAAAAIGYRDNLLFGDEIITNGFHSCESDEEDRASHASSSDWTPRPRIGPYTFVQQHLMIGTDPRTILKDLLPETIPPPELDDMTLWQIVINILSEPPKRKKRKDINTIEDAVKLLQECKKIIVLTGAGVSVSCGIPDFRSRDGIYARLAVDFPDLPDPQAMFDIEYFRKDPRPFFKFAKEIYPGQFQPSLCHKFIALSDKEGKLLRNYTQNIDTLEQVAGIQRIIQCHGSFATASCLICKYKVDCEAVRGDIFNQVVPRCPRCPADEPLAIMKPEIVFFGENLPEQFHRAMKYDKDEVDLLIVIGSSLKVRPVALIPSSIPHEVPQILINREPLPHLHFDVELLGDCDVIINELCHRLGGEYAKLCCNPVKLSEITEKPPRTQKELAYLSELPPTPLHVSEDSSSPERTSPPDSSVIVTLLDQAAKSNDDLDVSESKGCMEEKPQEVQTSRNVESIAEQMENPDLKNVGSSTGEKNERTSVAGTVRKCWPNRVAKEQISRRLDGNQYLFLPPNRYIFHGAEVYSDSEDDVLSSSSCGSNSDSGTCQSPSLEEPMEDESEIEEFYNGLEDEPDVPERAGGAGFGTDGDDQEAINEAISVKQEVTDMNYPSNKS

[14] = biological target: T1, NAD-dependent protein deacylase sirtuin-5, mitochondrial; assay: Binding affinity to SIRT5 (unknown origin) assessed as desuccinylation activity by measuring dissociation constant
Target sequence in this assay (Q9NXA8 whole entry): as the sequence (Q9NXA8 whole entry) above

[15] = biological target: T3, NAD-dependent protein deacetylase sirtuin-1 (Homo sapiens); assay: Inhibition of SIRT1 (unknown origin) at 50 uM relative to control
[16] = biological target: T4, NAD-dependent protein deacetylase sirtuin-2 (Homo sapiens) (UniProt Q8IXJ6); assay: Inhibition of SIRT2 (unknown origin) at 50 uM relative to control
T4 sequence (whole entry): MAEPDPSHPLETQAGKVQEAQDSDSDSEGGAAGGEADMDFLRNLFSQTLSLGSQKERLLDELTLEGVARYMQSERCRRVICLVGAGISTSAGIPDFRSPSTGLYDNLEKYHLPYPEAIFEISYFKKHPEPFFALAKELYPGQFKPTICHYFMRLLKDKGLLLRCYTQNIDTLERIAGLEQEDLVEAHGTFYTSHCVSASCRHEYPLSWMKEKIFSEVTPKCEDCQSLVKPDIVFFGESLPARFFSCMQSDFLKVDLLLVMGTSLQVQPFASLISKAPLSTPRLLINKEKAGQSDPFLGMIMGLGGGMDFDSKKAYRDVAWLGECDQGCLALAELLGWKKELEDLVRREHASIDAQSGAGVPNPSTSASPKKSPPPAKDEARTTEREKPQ

[17] = biological target: T2, NAD-dependent protein deacetylase sirtuin-3, mitochondrial (Homo sapiens); assay: Inhibition of SIRT3 (unknown origin) at 50 uM relative to control
[18] = biological target: T1, NAD-dependent protein deacylase sirtuin-5, mitochondrial; assay: Inhibition of SIRT5 activity (unknown origin)
[19] = biological target: T3, NAD-dependent protein deacetylase sirtuin-1 (Homo sapiens); assay: Inhibition of SIRT1 (unknown origin) at 1 uM relative to control
HEK-293T = assay: Cytotoxicity against human HEK293T cells at 100 uM relative to control; assay type: toxicity, cell-based
OCI-AML2 [20] = assay: Induction of apoptosis in human OCI-AML2 cells at 10 uM relative to control; assay type: functional
SKM-1 [21] = assay: Induction of apoptosis in human SKM-1 cells at 5 uM relative to control; assay type: functional

N=C(N)NCCC[C@@H]1NC(=O)CCCCC(=O)NCCCC[C@@H](C(N)=O)NC(=O)[C@H](CCCCNC(=S)NCCC(=O)O)NC1=O
IC50 [1]: 6.5 µM

CC(=O)SC(CC(=O)NCCCC[C@H](NC(=O)[C@H](CC(C)C)NC(=O)[C@@H](NC(=O)CNC(=O)c1ccccc1)C(C)C)C(=O)N[C@@H](CCC(=O)O)C(=O)N[C@@H](Cc1ccc(O)cc1)C(=O)NCC(=O)N[C@H](C(N)=O)C(C)C)C(=O)O (stereo not given in full) (Bz-GVLK(X4)EYGV-NH2)
Ki [2]: 10.6 µM

Cc1ccc(NC(=O)/C(C#N)=C/c2ccc(-c3ccc(C(=O)O)cc3)o2)cc1C
IC50 [3]: 22.7 µM

Cc1ccc(NC(=O)/C(C#N)=C/c2ccc(-c3cccc(C(=O)O)c3)o2)cc1C
IC50 [3]: 101 µM

O=C(NC1CCC1)[C@H](Cc1c[nH]c2ccccc12)NC(=O)[C@H](CCCCNC(=S)NCCc1cc(O)on1)NS(=O)(=O)c1cccc(F)c1
IC50 [4]: 0.29 µM
inhibition [5]: 40%

N=C(N)NCCC[C@@H]1NC(=O)CCC(=O)NCCCC[C@@H](C(N)=O)NC(=O)[C@H](CCCCNC(=S)NCCC(=O)O)NC1=O
IC50 [1]: 4 µM

O=C(O)CCNC(=S)NCCCC[C@H](NS(=O)(=O)c1cccc(F)c1)C(=O)N[C@@H](Cc1c[nH]c2ccccc12)C(=O)NC1CCC1
Ki [6]: 0.006 µM
IC50 (MOLM-13): 29 µM
Activity (SKM-1 [7]): >80%
Activity (OCI-AML2 [8]): 25%
IC50 (OCI-AML2 [9]): > 20 µM
IC50 (SKM-1 [10]): 10 µM

O=C(CC[C@H](NC(=O)OCc1ccccc1)C(=O)O)NCCCC[C@H](NC(=O)OCc1ccccc1)C(=O)Nc1ccccc1
inhibition [11]: 8%
inhibition [12]: 42%

Cc1ccc(NC(=O)/C(C#N)=C/c2ccc(-c3ccc(C(=O)O)cc3C)o2)cc1C
IC50 [3]: 57.4 µM

O=C(NC1CCC1)[C@H](Cc1c[nH]c2ccccc12)NC(=O)[C@H](CCCCNC(=S)NCCc1noc(=O)[nH]1)NS(=O)(=O)c1cccc(F)c1
IC50 [4]: ≤ 0.05 µM
inhibition [13]: 37%

CC(C)C[C@H](NC(=O)[C@@H](NC(=O)CNC(=O)c1ccccc1)C(C)C)C(=O)N[C@@H](CCCCNC(=O)C[C@H](NC(=O)OCc1ccccc1)C(=O)O)C(=O)N[C@@H](CCC(=O)O)C(=O)N[C@@H](Cc1ccc(O)cc1)C(=O)NCC(=O)N[C@H](C(N)=O)C(C)C (Bz-GVLK([βAsp-Cbz])EYGV-NH2)
Kd [14]: 5.78 µM
Ki [2]: 38.1 µM

CC(=O)NCCCC[C@H](NC(=O)[C@H](CCCCNC(=S)NCCC(=O)O)NC(=O)C(CCCNC(=N)N)NC(C)=O)C(N)=O (stereo not given in full)
IC50 [1]: 93.1 µM

O=C(O)CCNC(=S)NCCCC[C@H](NS(=O)(=O)c1cccc(F)c1)C(=O)N[C@@H](Cc1c[nH]c2ccccc12)C(=O)NC1CCCC1
IC50 [4]: 0.23 µM

CC(C)C[C@H](NC(=O)[C@@H](NC(=O)CNC(=O)c1ccccc1)C(C)C)C(=O)N[C@@H](CCCCNC(=O)CC(C(=O)O)c1ccccc1)C(=O)N[C@@H](CCC(=O)O)C(=O)N[C@@H](Cc1ccc(O)cc1)C(=O)NCC(=O)N[C@H](C(N)=O)C(C)C (stereo not given in full) (Bz-GVLK(Succinyl(3ξ-Ph))EYGV-NH2)
Kd [14]: 8.2 µM
Ki [2]: 100 µM

Cc1cc(C)cc(NC(=O)/C(C#N)=C/c2ccc(-c3ccc(C(=O)O)cc3)o2)c1
IC50 [3]: 37.9 µM

CC(C)C[C@H](NC(=O)[C@@H](NC(=O)CNC(=O)c1ccccc1)C(C)C)C(=O)N[C@@H](CCCCNC(=O)CC(C)(C(=O)O)c1ccccc1)C(=O)N[C@@H](CCC(=O)O)C(=O)N[C@@H](Cc1ccc(O)cc1)C(=O)NCC(=O)N[C@H](C(N)=O)C(C)C (stereo not given in full) (Bz-GVLK(X2)EYGV-NH2)
Ki [2]: 4.3 µM
inhibition [15]: < 1%
inhibition [16]: 4%
inhibition [17]: < 1%

O=C(O)CCNC(=S)NCCCC[C@H](NS(=O)(=O)c1cccc(F)c1)C(=O)N[C@@H](Cc1c[nH]c2ccccc12)C(=O)NC1CC1
IC50 [4]: 0.26 µM

O=C(NC1CCC1)[C@H](Cc1c[nH]c2ccccc12)NC(=O)[C@H](CCCCNC(=S)NCc1nnn[nH]1)NS(=O)(=O)c1cccc(F)c1
IC50 [18]: 5.1 µM

O=C(NC1CCC1)[C@H](Cc1c[nH]c2ccccc12)NC(=O)[C@H](CCCCNC(=S)NCCc1noc(=S)[nH]1)NS(=O)(=O)c1cccc(F)c1
IC50 [4]: 0.9 µM

CC(C)C(OC(=O)C(C)(C)C)n1nnnc1CCCNC(=S)NCCCC[C@H](NS(=O)(=O)c1cccc(F)c1)C(=O)N[C@@H](Cc1c[nH]c2ccccc12)C(=O)NC1CCC1 (stereo not given in full)
IC50 (MOLM-13): 24 µM
inhibition [19]: 76%
Activity (HEK-293T): 35%
IC50 (OCI-AML2 [9]): 20 µM
IC50 (SKM-1 [10]): 9 µM

CC(C)NC(=O)[C@H](Cc1c[nH]c2ccccc12)NC(=O)[C@H](CCCCNC(=S)NCCC(=O)O)NC(=O)OCc1ccccc1
Activity (OCI-AML2 [20]): >80%
Activity (SKM-1 [21]): >80%

CCCCC(CC(=O)NCCCC[C@H](NC(=O)[C@H](CC(C)C)NC(=O)[C@@H](NC(=O)CNC(=O)c1ccccc1)C(C)C)C(=O)N[C@@H](CCC(=O)O)C(=O)N[C@@H](Cc1ccc(O)cc1)C(=O)NCC(=O)N[C@H](C(N)=O)C(C)C)C(=O)O (stereo not given in full) (Bz-GVLK(X3)EYGV-NH2)
Ki [2]: 17.2 µM

N#C/C(=C\c1ccc(-c2ccc(C(=O)O)cc2)o1)C(=O)Nc1ccc(C#N)c(C(F)(F)F)c1
IC50 [3]: 13.9 µM

N#C/C(=C\c1ccc(-c2ccc(C(=O)O)cc2)o1)C(=O)Nc1ccc(Cl)c(C(F)(F)F)c1
IC50 [3]: 16.4 µM

N=C(N)NCCC[C@@H]1NC(=O)CCCCCCC(=O)NCCCC[C@@H](C(N)=O)NC(=O)[C@H](CCCCNC(=S)NCCC(=O)O)NC1=O
IC50 [1]: 2.2 µM

O=C(NC1CCC1)[C@H](Cc1c[nH]c2ccccc12)NC(=O)[C@H](CCCCNC(=S)NCCc1nnn[nH]1)NS(=O)(=O)c1cccc(F)c1
IC50 [4]: ≤ 0.05 µM
Ki [6]: 0.0005 µM
